Data on 2 substances can be found in publication PMC8022858, “Discovery of bone morphogenetic protein 7-derived peptide sequences that attenuate the human osteoarthritic chondrocyte phenotype” (Molecular Therapy. Methods & Clinical Development, 2021).

This assay deals with CAGA12 reporter (SMAD3 dependent) in SW1353 chondrocytic cells. Put plainly: CAGA12 firefly luciferase reporter assay. It is filed as cell-based. To be noted: 8 h peptide exposure, firefly normalized to Gaussia luciferase, relative to control (Figure 5B). How it is done:
Figure 5 Molecular characterization of peptides p[63−82] and p[113−132] (A) A pool of OA-HACs (n = 4 donors) was transfected with a scrambled siRNA or with an NKX3-2 siRNA (100 nM siRNA) and cultured for 24 h. Cultures were then exposed to peptide p[63−82] or p[113−132] (100 nM peptide). Samples were harvested 24 h later and analyzed for the expression of the indicated mRNAs (normalized to 28S rRNA). (B) SW1353 chondrocytic cells were transfected with BRE (SMAD1/5/8 reporter) or CAGA12 (SMAD2/3 reporter) firefly luciferase-reporter plasmids. A CMV-Gaussia plasmid was cotransfected as a transfection control. Cells were then cultured for 24 h and subsequently exposed to control, p[63−82], or p[113−132] for 8 h. Firefly and Gaussia bioluminescence were measured in cells and medium (respectively), and relative light units (RLUs) of firefly luciferase were normalized for the Gaussia luciferase signal. The normalized firefly luciferase signal of the control condition was set at 1, and peptide conditions were calculated relative to the control condition (FL/GL). Error bars represent mean ± SEM; statistical significance for peptide conditions versus siScrambled or siNKX3-2 (A) or control condition (B) as determined by unpaired two-tailed Student’s t test is represented as ∗p < 0.05, ∗∗p < 0.01, and ∗∗∗p < 0.001. […]

For H-AAYYSEGESAFPLNSYMNAT-OH [p[63−82]], the CAGA12-reporter activity entry is “diminished”. As to H-SVLYFDDSSNVILKKYRNMV-OH [p[113−132]], the CAGA12-reporter activity entry was “diminished”.
